The source of these data is PubChem BioAssay (NCI).

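Method: 48-hour compound exposure of cells in 96-well plates, five concentrations, linear interpolation of endpoints. GI50 is the concentration that inhibits growth by half. TGI is the concentration that stops growth completely.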

Some test systems named below: 786-0 renal; BT-549 breast; CAKI-1 renal; HCC-2998 colon; IGROV1 ovarian; M14 melanoma; NCI-H460 lung; OVCAR-5 ovarian; SK-OV-3 ovarian; U251 CNS.
What all share (assay): inhibition of tumour cell growth, NCI panel, 48 h

For the molecule `NS(=O)(=O)c1ccc(N2N=C3c4ccccc4CC3C2c2cccs2)cc1` (stereo not given), the GI50 in the assay with 786-0 renal is 17.6 µM; with BT-549 breast, 19.3 µM; in the assay with CAKI-1 renal, 19.6 µM; in the assay on HCC-2998 colon, 14.8 µM; with IGROV1 ovarian, 30 µM; in the assay on M14 melanoma, 26 µM. The GI50 was over 100 µM with NCI-H460 lung, 26.6 µM in the assay with OVCAR-5 ovarian, 48 µM with SK-OV-3 ovarian and 19.4 µM with U251 CNS. Also, the TGI in the assay with 786-0 renal is 41.7 µM; in the assay on BT-549 breast, 51.7 µM; with CAKI-1 renal it was 38.2 µM; with HCC-2998 colon it was 39.6 µM; in the assay with IGROV1 ovarian, 89.9 µM; with M14 melanoma, over 100 µM. The TGI is over 100 µM in the assay with NCI-H460 lung, over 100 µM with OVCAR-5 ovarian, over 100 µM in the assay on SK-OV-3 ovarian and 39.6 µM in the assay with U251 CNS.
As to `NS(=O)(=O)c1ccc(N=Nc2c(O)[nH]c3ccc(C(=O)NCc4ccncc4)cc23)cc1`, the GI50 was over 25 µM with 786-0 renal; over 9.38 µM in the assay on BT-549 breast; over 25 µM with CAKI-1 renal; over 25 µM with HCC-2998 colon; over 25 µM in the assay on IGROV1 ovarian; over 25 µM in the assay on M14 melanoma. The GI50 in the assay on NCI-H460 lung, in the assay with OVCAR-5 ovarian, in the assay on SK-OV-3 ovarian and in the assay with U251 CNS was over 25 µM each time. The TGI with 786-0 renal, with BT-549 breast, with CAKI-1 renal, with HCC-2998 colon, in the assay with IGROV1 ovarian and with M14 melanoma was over 25 µM in each case. The TGI with NCI-H460 lung, with OVCAR-5 ovarian, with SK-OV-3 ovarian and in the assay on U251 CNS was over 25 µM throughout.
On to `O=C(Nc1ccc(F)cc1F)c1cc(Cl)ccc1O`, for which the GI50 is 2.71 µM in the assay on 786-0 renal; 0.62 µM in the assay on BT-549 breast; 1.31 µM in the assay with CAKI-1 renal; 2.97 µM with HCC-2998 colon; 1.49 µM in the assay with IGROV1 ovarian; 0.446 µM with M14 melanoma. Also, the GI50 in the assay on NCI-H460 lung is 1.42 µM; with OVCAR-5 ovarian, 4.4 µM; in the assay on SK-OV-3 ovarian, 0.722 µM; in the assay with U251 CNS it was 1.38 µM. Also, the TGI with 786-0 renal was 7.69 µM; in the assay on BT-549 breast, 3.31 µM; in the assay with CAKI-1 renal, 5.51 µM; in the assay with HCC-2998 colon it was 9.51 µM; in the assay with IGROV1 ovarian, over 100 µM; with M14 melanoma it was 4.18 µM. The TGI in the assay on NCI-H460 lung was 19.2 µM; with OVCAR-5 ovarian, over 100 µM; in the assay with SK-OV-3 ovarian it was 4.85 µM; in the assay on U251 CNS it was 16 µM.
`COc1ccc(Nc2nc3ccccc3c3occc23)cc1`: the GI50 in the assay on 786-0 renal is 5.02 µM; in the assay on BT-549 breast, 6.08 µM; in the assay with CAKI-1 renal it was over 50 µM; with HCC-2998 colon, 5 µM; with IGROV1 ovarian, 37.4 µM; in the assay with M14 melanoma it was 9.72 µM. Also, the GI50 in the assay on NCI-H460 lung was over 50 µM; with OVCAR-5 ovarian, 7.95 µM; with SK-OV-3 ovarian it was 0.005 µM; in the assay on U251 CNS it was 5.13 µM. In addition, the TGI in the assay on 786-0 renal is 10.8 µM; with BT-549 breast it was 13.5 µM; with CAKI-1 renal it was over 50 µM; in the assay on HCC-2998 colon it was 11.1 µM; in the assay on IGROV1 ovarian it was over 50 µM; in the assay with M14 melanoma it was 18.9 µM. The TGI was over 50 µM with NCI-H460 lung, 16.6 µM with OVCAR-5 ovarian, 9.95 µM in the assay on SK-OV-3 ovarian and 11.7 µM in the assay with U251 CNS.
Turning to `C1=C/COCc2cc(ccc2OCCN2CCCC2)Nc2nccc(n2)-c2ccc(o2)COC/1`, the GI50 in the assay with 786-0 renal was 2.71 µM; in the assay on BT-549 breast, 2.18 µM; in the assay with CAKI-1 renal it was 0.46 µM; with HCC-2998 colon it was 2.18 µM; in the assay on IGROV1 ovarian, 0.626 µM; in the assay with M14 melanoma it was 1.56 µM. Moreover, the GI50 in the assay on NCI-H460 lung was 1.16 µM; with OVCAR-5 ovarian, 0.716 µM; in the assay on SK-OV-3 ovarian, 2.44 µM; in the assay on U251 CNS, 3.07 µM. Also, the TGI in the assay on 786-0 renal was 13 µM; with BT-549 breast it was 4.95 µM; in the assay on CAKI-1 renal it was 3.28 µM; with HCC-2998 colon, 7.93 µM; with IGROV1 ovarian it was 6.57 µM; in the assay on M14 melanoma, 9.09 µM. The TGI in the assay on NCI-H460 lung was found to be 4.5 µM; in the assay on OVCAR-5 ovarian, 3.8 µM; with SK-OV-3 ovarian, 7.53 µM; with U251 CNS, 14.7 µM.
Consider `NC(=O)[C@@H](CC1CC1)[C@@H](CCC(F)(F)F)C(=O)N[C@H]1N=C(c2ccccc2)c2cccc(F)c2NC1=O`, for which the GI50 in the assay on 786-0 renal was 17.8 µM; with BT-549 breast, over 100 µM; in the assay with CAKI-1 renal it was over 100 µM; with HCC-2998 colon, over 100 µM; with IGROV1 ovarian it was 31.7 µM; with M14 melanoma it was over 100 µM. Further, the GI50 with NCI-H460 lung, with OVCAR-5 ovarian, in the assay on SK-OV-3 ovarian and with U251 CNS was over 100 µM throughout. The TGI with 786-0 renal was 53.9 µM; in the assay with BT-549 breast it was over 100 µM; in the assay on CAKI-1 renal it was over 100 µM; with HCC-2998 colon, over 100 µM; with IGROV1 ovarian, over 100 µM; in the assay on M14 melanoma it was over 100 µM. Also, the TGI in the assay with NCI-H460 lung, with OVCAR-5 ovarian, in the assay on SK-OV-3 ovarian and with U251 CNS was over 100 µM in each case.
